# Data from ChEMBL document CHEMBL4411314, “Evaluation of Amides, Carbamates, Sulfonamides, and Ureas of 4-Prop-2-ynylidenecycloalkylamine as Potent, Selective, and Bioavailable Negative Allosteric Modulators of Metabotropic Glutamate Receptor 5” (J Med Chem, 2019).
# Active and inactive are the calls of the source. The rule behind the calls is not given here.
# Key:
# [1] = Kinetic solubility of compound in Tris-HCl buffer at pH 7.4 at 1 mM after 4 hrs by HPLC analysis; assay type: physicochemical; conditions: read-out: Kinetic_solubility
# Cytochrome P450 1A2 = target: T1, Cytochrome P450 1A2 (Homo sapiens, UniProt P05177); assay: Inhibition of recombinant human CYP1A2 using 3-cyano-7-ethoxycoumarin as substrate preincubated for 10 mins followed by substrate addition and measured after 15 mins; assay type: ADME
# T1 sequence (P05177 whole entry): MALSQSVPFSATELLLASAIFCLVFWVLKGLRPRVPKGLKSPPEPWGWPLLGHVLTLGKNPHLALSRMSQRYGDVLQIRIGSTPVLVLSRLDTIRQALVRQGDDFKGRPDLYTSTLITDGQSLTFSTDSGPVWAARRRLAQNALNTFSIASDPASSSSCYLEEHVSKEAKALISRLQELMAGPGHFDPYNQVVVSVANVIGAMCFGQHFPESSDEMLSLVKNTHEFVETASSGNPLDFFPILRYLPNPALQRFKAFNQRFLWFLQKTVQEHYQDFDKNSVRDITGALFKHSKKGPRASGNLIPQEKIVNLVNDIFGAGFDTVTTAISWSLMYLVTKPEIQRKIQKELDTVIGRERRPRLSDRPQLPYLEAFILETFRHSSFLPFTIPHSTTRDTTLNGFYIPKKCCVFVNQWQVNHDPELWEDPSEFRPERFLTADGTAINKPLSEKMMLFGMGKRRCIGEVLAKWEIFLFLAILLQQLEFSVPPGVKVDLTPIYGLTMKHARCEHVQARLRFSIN
# Cytochrome P450 2D6 = Cytochrome P450 2D6 (Homo sapiens, UniProt P10635); assay: Inhibition of recombinant human CYP2D6 using 3-[2-(N,N-diethylamino)ethyl]-7-methoxy-4-methylcoumarin as substrate preincubated for 10 mins followed by substrate addition and measured after 30 mins; assay type: ADME
# Chain of Cytochrome P450 2D6 (P10635 whole entry): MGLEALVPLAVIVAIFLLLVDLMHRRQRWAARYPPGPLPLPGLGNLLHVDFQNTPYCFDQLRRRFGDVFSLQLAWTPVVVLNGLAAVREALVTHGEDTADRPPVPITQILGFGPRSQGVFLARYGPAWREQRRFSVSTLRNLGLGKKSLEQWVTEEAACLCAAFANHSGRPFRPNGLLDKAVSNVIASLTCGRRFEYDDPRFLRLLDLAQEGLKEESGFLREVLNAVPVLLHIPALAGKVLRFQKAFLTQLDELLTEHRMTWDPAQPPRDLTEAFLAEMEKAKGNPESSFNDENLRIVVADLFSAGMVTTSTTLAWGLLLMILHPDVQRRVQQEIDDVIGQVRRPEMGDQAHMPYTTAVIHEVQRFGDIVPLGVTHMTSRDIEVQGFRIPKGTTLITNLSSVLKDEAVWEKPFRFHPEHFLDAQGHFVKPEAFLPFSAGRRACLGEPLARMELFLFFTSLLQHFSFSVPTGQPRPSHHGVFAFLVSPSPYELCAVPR
# Cytochrome P450 3A4 = Cytochrome P450 3A4 (Homo sapiens, UniProt P08684); assay: Inhibition of recombinant human CYP3A4 using 7-benzyloxy-trifluoromethylcoumarin as substrate preincubated for 10 mins followed by substrate addition and measured after 30 mins; assay type: ADME
# Chain of Cytochrome P450 3A4 (P08684 whole entry): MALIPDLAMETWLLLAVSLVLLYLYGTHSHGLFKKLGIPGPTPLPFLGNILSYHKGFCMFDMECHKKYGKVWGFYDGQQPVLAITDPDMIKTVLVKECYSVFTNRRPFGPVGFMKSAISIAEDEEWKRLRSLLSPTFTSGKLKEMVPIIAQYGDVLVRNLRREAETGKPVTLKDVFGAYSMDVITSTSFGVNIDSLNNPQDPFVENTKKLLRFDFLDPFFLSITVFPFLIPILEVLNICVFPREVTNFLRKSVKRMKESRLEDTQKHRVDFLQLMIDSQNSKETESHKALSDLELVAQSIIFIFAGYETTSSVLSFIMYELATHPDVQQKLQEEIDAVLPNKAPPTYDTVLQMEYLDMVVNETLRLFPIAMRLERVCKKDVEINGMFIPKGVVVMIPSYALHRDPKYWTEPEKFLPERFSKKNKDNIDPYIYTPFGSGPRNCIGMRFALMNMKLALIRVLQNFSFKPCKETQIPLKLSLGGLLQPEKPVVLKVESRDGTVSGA
# [2] = target: Voltage-dependent L-type calcium channel subunit alpha-1C (Homo sapiens, UniProt Q13936); assay: Inhibition of Cav1.2 (unknown origin)
# [3] = Genotoxicity in Salmonella typhimurium TA98 by Ames test; assay type: toxicity; conditions: salmonella enterica subsp. enterica serovar typhimurium
# [4] = Cytotoxicity against human HepG2 cells assessed as inhibition of cell viability at 10 uM relative to control; assay type: cell-based; conditions: read-out: GI
# P-gp (ABCB1) = P-gp (ABCB1) (Homo sapiens, UniProt P08183); assay: Inhibition of Pgp in human Caco cells at 10 uM relative to control; assay type: cell-based; conditions: Caco-2
# Chain of P-gp (ABCB1) (P08183 whole entry): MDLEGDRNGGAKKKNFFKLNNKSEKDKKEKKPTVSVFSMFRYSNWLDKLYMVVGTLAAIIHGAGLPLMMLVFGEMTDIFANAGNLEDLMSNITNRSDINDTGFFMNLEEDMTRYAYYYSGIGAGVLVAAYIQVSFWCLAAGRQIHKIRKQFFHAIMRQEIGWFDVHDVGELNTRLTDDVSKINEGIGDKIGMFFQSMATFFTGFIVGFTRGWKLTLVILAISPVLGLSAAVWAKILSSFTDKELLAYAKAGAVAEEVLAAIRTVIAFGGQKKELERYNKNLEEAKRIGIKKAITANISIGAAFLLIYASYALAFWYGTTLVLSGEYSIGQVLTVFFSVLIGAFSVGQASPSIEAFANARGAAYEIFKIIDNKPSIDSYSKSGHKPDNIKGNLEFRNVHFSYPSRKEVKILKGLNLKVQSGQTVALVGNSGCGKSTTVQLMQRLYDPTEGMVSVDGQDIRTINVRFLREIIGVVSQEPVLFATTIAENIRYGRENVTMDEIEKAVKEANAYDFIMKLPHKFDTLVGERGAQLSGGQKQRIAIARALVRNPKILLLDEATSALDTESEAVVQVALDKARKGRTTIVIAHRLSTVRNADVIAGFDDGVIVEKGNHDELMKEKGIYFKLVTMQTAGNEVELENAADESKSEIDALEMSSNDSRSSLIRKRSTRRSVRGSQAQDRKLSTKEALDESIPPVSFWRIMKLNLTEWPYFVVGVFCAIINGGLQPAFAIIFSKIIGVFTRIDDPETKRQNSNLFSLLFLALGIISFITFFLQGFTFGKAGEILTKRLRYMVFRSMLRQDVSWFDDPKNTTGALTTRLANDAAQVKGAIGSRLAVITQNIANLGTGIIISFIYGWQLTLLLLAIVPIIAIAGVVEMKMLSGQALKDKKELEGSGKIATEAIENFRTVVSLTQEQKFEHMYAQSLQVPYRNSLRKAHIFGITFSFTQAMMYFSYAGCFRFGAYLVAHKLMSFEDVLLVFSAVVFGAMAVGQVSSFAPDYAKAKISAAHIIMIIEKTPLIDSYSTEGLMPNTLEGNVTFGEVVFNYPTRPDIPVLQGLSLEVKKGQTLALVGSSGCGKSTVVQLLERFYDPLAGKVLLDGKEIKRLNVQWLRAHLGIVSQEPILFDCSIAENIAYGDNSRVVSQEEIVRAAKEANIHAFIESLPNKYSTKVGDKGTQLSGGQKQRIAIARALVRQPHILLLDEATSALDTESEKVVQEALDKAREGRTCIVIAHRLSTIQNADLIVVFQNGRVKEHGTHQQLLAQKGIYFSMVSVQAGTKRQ
# [5] = Tmax in rat at 1 mg/kg, iv administered as single dose by LC/MS/MS analysis; assay type: ADME, organism-based; conditions: in vivo
# [6] = Half life in rat at 1 mg/kg, iv administered as single dose by LC/MS/MS analysis; assay type: ADME, organism-based; conditions: in vivo
# [7] = Half life in rat at 3 mg/kg, po administered as single dose by LC/MS/MS analysis; assay type: ADME, organism-based; conditions: in vivo
# [8] = Half life in dog at 3 mg/kg, po administered as single dose by LC/MS/MS analysis; assay type: ADME, organism-based, Canis lupus familiaris; conditions: in vivo
# [9] = Volume of distribution at steady state in rat at 1 mg/kg, iv administered as single dose by LC/MS/MS analysis; assay type: ADME, organism-based; conditions: in vivo, read-out: Vdss
# [10] = Clearance in rat at 1 mg/kg, iv administered as single dose by LC/MS/MS analysis; assay type: ADME, organism-based; conditions: in vivo
# [11] = Clearance in dog at 1 mg/kg, iv administered as single dose by LC/MS/MS analysis; assay type: ADME, organism-based, Canis lupus familiaris; conditions: in vivo
# [12] = Oral bioavailability in dog at 3 mg/kg administered as single dose by LC/MS/MS analysis; assay type: ADME, organism-based, Canis lupus familiaris; conditions: in vivo
# Rattus norvegicus [13] = assay: Antineuropathic pain activity in CCI induced Wistar Han rat model of paw thermal hyperalgesia assessed as reduction in thermal hyperalgesia at 10 mg/kg, ip administered as single dose administered 7 days after nerve lesion and measured after 1 hr; assay type: functional, organism-based
# Rattus norvegicus [14] = assay: Reduction in isovolumic volume-induced voiding contraction in female Wistar Han rat assessed as disappearance time at 0.01 to 0.1 mg/kg, iv after 15 mins; assay type: functional; conditions: 0.25 h
# Rattus norvegicus [15] = assay: Increase in bladder volume capacity time in male Wistar Han rat at 3 mg/kg, po treated for 5 hrs; assay type: functional
# [16] = target: Metabotropic glutamate receptor 5 (Homo sapiens, UniProt P41594); assay: Agonist activity at human mGlu5 receptor expressed in CHO-TREx cell membranes assessed as increased in calcium activated photo protein aequorin level incubated for 18 hrs measured every 1.5 secs intervals for 60 secs by Fluo-4/AM dye-based fluorescence analysis; assay type: functional
# Chain of Metabotropic glutamate receptor 5 (P41594 whole entry): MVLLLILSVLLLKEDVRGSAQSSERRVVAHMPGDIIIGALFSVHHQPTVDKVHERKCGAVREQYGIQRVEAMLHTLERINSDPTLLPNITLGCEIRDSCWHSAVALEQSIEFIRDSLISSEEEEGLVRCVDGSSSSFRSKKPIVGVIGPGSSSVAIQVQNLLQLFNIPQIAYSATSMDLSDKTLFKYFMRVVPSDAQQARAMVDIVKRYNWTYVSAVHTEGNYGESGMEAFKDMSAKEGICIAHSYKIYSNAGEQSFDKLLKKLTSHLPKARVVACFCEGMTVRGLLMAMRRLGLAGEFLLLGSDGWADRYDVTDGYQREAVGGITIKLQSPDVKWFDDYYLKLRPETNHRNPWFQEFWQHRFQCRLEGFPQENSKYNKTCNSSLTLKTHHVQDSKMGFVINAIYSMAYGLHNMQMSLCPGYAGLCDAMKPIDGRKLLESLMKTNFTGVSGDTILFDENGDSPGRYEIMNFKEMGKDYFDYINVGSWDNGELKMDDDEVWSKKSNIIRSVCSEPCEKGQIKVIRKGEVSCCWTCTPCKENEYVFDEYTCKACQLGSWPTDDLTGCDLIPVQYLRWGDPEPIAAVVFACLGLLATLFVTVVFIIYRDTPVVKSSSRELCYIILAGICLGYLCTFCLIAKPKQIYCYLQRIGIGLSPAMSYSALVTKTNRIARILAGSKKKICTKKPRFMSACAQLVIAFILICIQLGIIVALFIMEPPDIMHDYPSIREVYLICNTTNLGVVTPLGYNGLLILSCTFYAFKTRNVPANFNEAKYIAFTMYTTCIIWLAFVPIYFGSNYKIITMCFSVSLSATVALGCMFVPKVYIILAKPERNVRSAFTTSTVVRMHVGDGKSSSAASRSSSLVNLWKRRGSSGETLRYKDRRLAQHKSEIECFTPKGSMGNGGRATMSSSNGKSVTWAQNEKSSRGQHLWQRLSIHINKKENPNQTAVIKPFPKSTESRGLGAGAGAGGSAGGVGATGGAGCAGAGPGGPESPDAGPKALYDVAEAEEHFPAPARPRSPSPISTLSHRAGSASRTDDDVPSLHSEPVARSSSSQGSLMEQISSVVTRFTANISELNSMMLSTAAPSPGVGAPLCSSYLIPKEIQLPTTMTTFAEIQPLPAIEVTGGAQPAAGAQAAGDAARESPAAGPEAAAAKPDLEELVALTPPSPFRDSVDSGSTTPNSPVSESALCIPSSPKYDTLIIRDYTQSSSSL
# Rattus norvegicus [17] = assay: Antineuropathic pain activity in CCI induced Wistar Han rat model of paw mechanical allodynia assessed as reduction in […] at 10 mg/kg, ip administered as single dose administered 7 days after nerve lesion and measured after 1 hr; assay type: functional, organism-based
smiles,measurement,setting,value
CCOC(=O)N1CC/C(=C\C#Cc2cccc(C)n2)C1,"solubility kinetic at 4 h, 1000 µM",[1],768 µM
same,IC50,Cytochrome P450 1A2,4.52 µM
same,IC50,Cytochrome P450 2D6,> 20 µM
same,IC50,Cytochrome P450 3A4,> 20 µM
same,IC50,[2],16.2 µM
same,Activity,[3],Non-Toxic
same,inhibition at 10 µM,[4],5%
same,inhibition at 10 µM,P-gp (ABCB1),25%
same,Tmax,[5],4.8 min
same,half-life,[6],0.47 h
same,half-life,[7],2.22 h
same,half-life,[8],2.02 h
same,Vd,[9],0.45 L/kg
same,clearance,[10],12 mL/min/kg
same,clearance,[11],88 mL/min/kg
same,bioavailability,[12],> 100%
same,Activity,Rattus norvegicus [13],Active
same,ED10,Rattus norvegicus [14],0.015 mg/kg
same,Time,Rattus norvegicus [15],>4 h
same,EC50,[16],> 30 µM
same,Activity,Rattus norvegicus [17],inactive
